Assay results from ChEMBL document CHEMBL4689842, “EUbOPEN Chemogenomics Library wave 1” (2021).

Assays:
Type in all cases: toxicity, cell-based
Fibroblast = experiment: Incucyte cell viability with human fibroblast; conditions: 10 µM, compound concentration 10 uM
U2OS = experiment: Incucyte cell viability with U2OS; conditions: human, 10 µM, compound concentration 10 uM
HEK-293T = experiment: Incucyte cell viability with HEK293T; conditions: human, 10 µM, compound concentration 10 uM
[1] = 0 h, replicate number 1, timepoint 0 hours
[2] = 6 h, replicate number 1, timepoint 6 hours
[3] = 6 h, replicate number 2, timepoint 6 hours
[4] = 12 h, replicate number 2, timepoint 12 hours
[5] = 18 h, replicate number 1, timepoint 18 hours
[6] = 24 h, replicate number 1, timepoint 24 hours
[7] = 12 h, replicate number 1, timepoint 12 hours
[8] = 24 h, replicate number 2, timepoint 24 hours
[9] = 0 h, replicate number 2, timepoint 0 hours
[10] = 18 h, replicate number 2, timepoint 18 hours
Note: filed as whole numbers so only -1 and 0 and 1 occur.

| SMILES | Growth Rate (Fibroblast; [1]) | Growth Rate (Fibroblast; [2]) | Growth Rate (Fibroblast; [3]) | Growth Rate (Fibroblast; [5]) | Growth Rate (Fibroblast; [6]) | Growth Rate (U2OS; [1]) | Growth Rate (U2OS; [2]) | Growth Rate (U2OS; [7]) | Growth Rate (U2OS; [5]) | Growth Rate (U2OS; [6]) | Growth Rate (U2OS; [8]) | Growth Rate (HEK-293T; [1]) | Growth Rate (HEK-293T; [2]) | Growth Rate (HEK-293T; [7]) | Growth Rate (HEK-293T; [5]) | Growth Rate (HEK-293T; [6]) | Growth Rate (Fibroblast; [9]) | Growth Rate (Fibroblast; [7]) | Growth Rate (HEK-293T; [9]) | Growth Rate (U2OS; [3]) | further results |
| --- | --- | --- | --- | --- | --- | --- | --- | --- | --- | --- | --- | --- | --- | --- | --- | --- | --- | --- | --- | --- | --- |
| NS(=O)(=O)c1cc(NC(=O)C2(c3ccccc3Cl)CC2)ccc1Oc1cccc(Cl)c1 [BAY-207] | 0 | 1 | 0 | 1 | 1 | 0 | 0 | 0 | 0 | 1 | 0 | 0 | 0 | 0 | 0 | 0 |  |  |  |  | Growth Rate (Fibroblast; [4]): 1 |
| CC(=O)[C@@]1(O)CC[C@H]2[C@@H]3C[C@H](C)C4=CC(=O)CC[C@]4(C)[C@H]3CC[C@@]21C | 1 | 0 |  | 1 | 1 | 1 | 1 | 1 | 1 | 1 |  | 1 | 0 | 0 | 0 | 0 | 0 | 1 | 0 |  |  |
| CN(CCOc1ccc(C[C@H](Nc2ccccc2C(=O)c2ccccc2)C(=O)O)cc1)c1ccccn1.O | 0 | 1 | 0 |  | 1 | 0 |  | 0 | 0 | 1 | 0 | 1 | 0 | 1 | 1 | 1 |  |  | 0 | 0 | Growth Rate (Fibroblast; [4]): 0; Growth Rate (Fibroblast; [10]): 0; Growth Rate (Fibroblast; [8]): 0; Growth Rate (HEK-293T; [3]): 1; Growth Rate (HEK-293T; [8]): 0 |
| CCC(=O)N[C@@H]1CC[C@H](C(=O)N(C)c2ccc(-c3nc4ccccc4o3)cc2)C1 [BI 99990] | 0 | 0 |  | 0 | 1 | 0 | 0 | 0 | 0 | 0 |  | 0 | 0 | 0 | 0 | 0 |  | 0 | 1 | 1 | Growth Rate (Fibroblast; [8]): 0; Growth Rate (U2OS; [4]): 1 |
| Cc1nc2sccn2c(=O)c1CCN1CCC(=C(c2ccc(F)cc2)c2ccc(F)cc2)CC1 [RITANSERIN] | 0 | 0 |  | 0 | 0 | 1 |  | 1 | 1 | 1 |  | 0 | 1 | 1 | 0 | 0 |  | 0 |  |  | Growth Rate (U2OS; [9]): 0; Growth Rate (HEK-293T; [3]): 0; Growth Rate (HEK-293T; [4]): 0 |
| CCC1(C2=NCCN2)Cc2ccccc2O1 (stereo not given) [EFAROXAN] | 0 | 0 |  | 0 | 0 | 0 |  | 0 | 0 | 1 |  | 1 | 1 | 1 | 1 | 1 | 1 | 0 | 0 | 1 | Growth Rate (U2OS; [9]): 1; Growth Rate (U2OS; [4]): 1 |
| CN1C(=O)[C@@H](N2CCc3c(nn(Cc4ccccc4)c3Br)C2=O)COc2ccccc21 [TP-030-2] |  | 0 |  | 0 | 0 | 0 | 0 | 0 | 0 | 0 | 1 | 0 |  |  | 1 | 1 |  | 0 | 1 | 1 | Growth Rate (U2OS; [4]): 1; Growth Rate (U2OS; [10]): 1; Growth Rate (HEK-293T; [3]): 0; Growth Rate (HEK-293T; [4]): 0; Growth Rate (HEK-293T; [8]): 0 |
| O=C(NCc1ccc(F)cc1)C1CCN(S(=O)(=O)c2cc(Cl)cc(Cl)c2)CC1 | 0 |  | 1 |  | 1 | 0 |  | 1 | 0 | 0 | 1 | 0 | 1 | 1 | 0 | 0 |  |  |  | 0 | Growth Rate (Fibroblast; [4]): 1; Growth Rate (Fibroblast; [10]): 1; Growth Rate (U2OS; [4]): 0; Growth Rate (U2OS; [10]): 1; Growth Rate (HEK-293T; [4]): 0 |
| C[C@H](c1ccnc(Nc2nc3ccc(-c4cc(N(C)C)ncn4)cc3[nH]2)c1)N1CCN(C(=O)CC(F)(F)F)CC1 [BAY-985] | 1 | 1 |  | 1 | 1 | 0 | 1 | 1 | 0 | 1 |  | 0 |  |  |  |  |  | 1 | 1 |  | Growth Rate (U2OS; [10]): 1; Growth Rate (HEK-293T; [8]): 1 |
| CO[C@H]1/C=C/O[C@@]2(C)Oc3c(C)c(O)c4c(O)c(c(/C=N/N5CCN(C)CC5)c(O)c4c3C2=O)NC(=O)/C(C)=C\C=C\[C@H](C)[C@H](O)[C@@H](C)[C@@H](O)[C@@H](C)[C@H](OC(C)=O)[C@@H]1C [RIFAMPIN] | 0 | 0 |  | 0 | 0 | 0 |  | 1 | 1 | 0 | 1 | 0 | 1 | 1 | 1 | 1 |  | 0 |  | 1 |  |
| CCCCc1nc2ccc(NC(=O)NC3CCCCC3)cc2n1Cc1ccc(-c2ccccc2C(=O)O)cc1 | 0 | 1 |  | 1 | 1 | 0 | 0 | 0 | 0 | 0 | 1 | 1 | 0 | 0 | 0 | 0 |  | 0 | 0 |  | Growth Rate (U2OS; [4]): 1; Growth Rate (U2OS; [10]): 1; Growth Rate (HEK-293T; [3]): 1; Growth Rate (HEK-293T; [4]): 1; Growth Rate (HEK-293T; [10]): 1 |
| O=C(NOC[C@H](O)CO)c1ccc(F)c(F)c1Nc1ccc(I)cc1F [MIRDAMETINIB] |  | 1 | 0 | 1 | 1 |  | 0 | 0 | 0 | 0 |  | 0 |  |  |  |  | 0 | 1 | 1 |  | Growth Rate (U2OS; [9]): 0; Growth Rate (HEK-293T; [8]): 1 |
| CC(C)CC(=O)N1CCc2nc(-c3ccc(Br)cc3)nc(N(C)Cc3ccccc3)c2C1 [THPP-1-NC] |  | 1 | 0 | 1 | 1 | 0 | 1 | 0 | 0 | 0 |  | 0 |  |  |  | 1 | 0 | 0 | 1 | 0 | Growth Rate (Fibroblast; [10]): 0; Growth Rate (Fibroblast; [8]): 0; Growth Rate (U2OS; [10]): 1; Growth Rate (HEK-293T; [3]): 0; Growth Rate (HEK-293T; [4]): 0; Growth Rate (HEK-293T; [10]): 1; Growth Rate (HEK-293T; [8]): 0 |
| Cc1nc(C#Cc2ccnc(Cl)c2)c(C)n1-c1ccc(OC(F)(F)F)cc1 | 1 | 1 | 0 | 1 | 1 | 0 |  | 1 | 1 | 1 |  | 0 | 0 | 0 | 0 | 0 | 0 | 0 |  |  | Growth Rate (Fibroblast; [10]): 0; Growth Rate (Fibroblast; [8]): 0 |
